Source: patent US12139486B2, “Octahydro fused azadecalin glucocorticoid receptor modulators” (Corcept Therapeutics, Inc., priority 2013, dated 2024)

Tests used:
human recombinant GR = target: T1, human recombinant GR (Homo sapiens, UniProt P04150); assay: Human Glucocorticoid Receptor (GR) Fluorescence Polarisation (FP) Binding Assay; settings: Ki from IC50 by ligand depletion correction; displacement of Fluorome GS Red
T1 construct: purchased PanVera P2812
T1 sequence (P04150 1-777): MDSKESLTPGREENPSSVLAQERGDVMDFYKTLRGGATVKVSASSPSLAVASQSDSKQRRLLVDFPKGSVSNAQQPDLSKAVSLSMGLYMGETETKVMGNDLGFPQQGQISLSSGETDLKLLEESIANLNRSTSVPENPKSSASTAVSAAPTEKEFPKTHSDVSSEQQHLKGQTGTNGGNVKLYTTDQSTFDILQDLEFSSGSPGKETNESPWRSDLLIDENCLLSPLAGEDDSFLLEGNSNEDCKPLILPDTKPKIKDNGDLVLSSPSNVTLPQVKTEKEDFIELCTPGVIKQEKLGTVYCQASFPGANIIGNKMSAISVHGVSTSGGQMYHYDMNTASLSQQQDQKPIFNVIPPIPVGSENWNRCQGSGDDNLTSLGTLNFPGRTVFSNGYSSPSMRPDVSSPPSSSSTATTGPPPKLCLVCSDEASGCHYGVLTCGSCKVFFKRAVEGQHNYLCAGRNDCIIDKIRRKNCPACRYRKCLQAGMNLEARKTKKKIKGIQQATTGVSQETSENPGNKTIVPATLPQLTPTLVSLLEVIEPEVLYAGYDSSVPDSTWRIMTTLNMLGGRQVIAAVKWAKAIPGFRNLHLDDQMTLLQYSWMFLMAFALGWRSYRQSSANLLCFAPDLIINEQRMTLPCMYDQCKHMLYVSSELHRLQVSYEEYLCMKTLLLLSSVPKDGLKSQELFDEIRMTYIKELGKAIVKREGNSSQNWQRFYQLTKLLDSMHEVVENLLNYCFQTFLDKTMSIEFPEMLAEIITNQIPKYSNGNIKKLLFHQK
Procedure: The following is a description of a FP assay for measuring compound inhibition of labelled glucocorticoid binding to the human recombinant GR.
The binding affinity of test compounds was determined using a FP binding assay using human recombinant GR (PanVera P2812) and a fluorescent labelled glucocorticoid ligand (Fluorome GS Red) (PanVera P2894). The presence of inhibitors prevents the formation of a GS Red/GR complex resulting in a decrease in the measured polarisation value. The change in polarisation value in the presence of test compounds is used to calculate the binding affinity of the compound for GR.
This assay was performed in 384 well, black, round-bottom, polypropylene micro titre plates in a final volume of 20 μl. The assay contained 5 μl 1 nM GR (final concentration), 5 μl 0.5 nM Fluorome GS Red (final concentration) in the presence of 10p test compounds. Positive control wells (high polarisation) receive, 10 μl 2% (v:v) DMSO vehicle (1% (v/v) final concentration)+5 μl 1 nM GR and 5 μl 0.5 nM Fluorome GS Red. […] Assay blank background wells (used for normalisation) receive 15 μl 1×GS screening buffer+5 μl GR.
For the IC50 determination (concentration of compound that displaces 50% of the bound GS Red), compounds were tested at eight different concentrations in duplicate in two independently performed experiments. Compounds were prepared as solubilised solids at 10 mM in DMSO. On the day of assay, an 8 point half-log serial dilution (55 μl DMSO+25 μl compound solution) was prepared. A 1:50 dilution (1 μl compound solution+49 μl 1×GR screening buffer) was prepared for each compound. The compounds were prepared at 2× final assay concentration.
The plates were mixed and incubated for 4 hour at room temperature. FP was measured using an Envision Excite plate reader with 535 nm excitation and 590 nm emission interference filters.
Milli-polarisation (mP) values were calculated using the below equation: mP=1000*(S−G*P)/(S+G*P) where S and P are assay blank background subtracted fluorescence units, G=G-factor (1.07).
Compound IC50 values were calculated by plotting a [compound] v. % inhibition curve and fitting the data to a 4-parameter logistic fit equation.
10×GR screening buffer (100 mM potassium phosphate pH 7.4, 200 mM Na2MoO4, 1 mM EDTA, 20% (v/v) DMSO). To prepare 1×GR screening buffer, combine 1 ml 10×GR screening buffer (PanVera P2814)+1 ml stabilising peptide (PanVera P2815)+7.95 ml 4° C. MQ water. Add 50p 1M DTT, vortex and place on ice until use.

glucocorticoid receptor = target: T2, glucocorticoid receptor (Homo sapiens, UniProt P04150); assay: HepG2 Tyrosine Aminotransferase (TAT) Assay; format: cell-based
T2 construct: endogenous in cells; host or cells: HepG2
T2 sequence (P04150 1-777): T1 sequence (P04150 1-777)
Procedure: Glucocorticoid mediated activation of TAT occurs by transactivation of glucocorticoid response elements in the TAT promoter by glucocorticoid receptor-agonist complex.
HepG2 cells were cultured using MEME media supplemented with 10% (v/v) foetal bovine serum; 2 mM L-glutamine and 1% (v/v) NEAA at 37° C., 5%/95% (v/v) CO2/air.
Compounds were serially half log diluted in 100% (v/v) dimethylsulphoxide from a 10 mM stock.
HepG2 cells were then lysed with 30 μl of cell lysis buffer containing a protease inhibitor cocktail for 15 minutes at 4° C. […] After 2 hours incubation at 37° C. the reaction was terminated by the addition of 15 μl of 10 M aqueous potassium hydroxide solution, and the plates incubated for a further 30 minutes at 37° C.
[compound] and fitting the data to a 4 parameter logistic equation.

| Compound | Ki (human recombinant GR) | Ki (glucocorticoid receptor) |
| --- | --- | --- |
| Cn1ncc(S(=O)(=O)N2CC[C@H]3Cc4c(cnn4-c4ccc(F)cc4)C[C@]3(C(=O)c3nccs3)C2)n1 [Example 2Y, ((4aR,8aS)-1-(4-fluorophenyl)-6-((2-methyl-2H-1,2,3-triazol-4-yl)sulfonyl)-4,4a,5,6,7,8,8a,9-octahydro-1H-pyrazolo[3,4-g]isoquinolin-4a-yl)(thiazol-2-yl)methanone] | > 1 nM | > 100 nM |
| N#Cc1cccc(S(=O)(=O)N2CC[C@H]3Cc4c(cnn4-c4ccc(F)cc4)C[C@]3(C(=O)c3ccccn3)C2)c1 [Example 2T, 3-(((4aR,8aS)-1-(4-fluorophenyl)-4a-picolinoyl-4a,5,7,8,8a,9-hexahydro-1H-pyrazolo[3,4-g]isoquinolin-6(4H)-yl)sulfonyl)benzonitrile] | > 1 nM | 20 to 100 nM |
| O=C(c1cscn1)[C@]12Cc3cnn(-c4ccc(F)cc4)c3C[C@@H]1CCN(S(=O)(=O)c1cccc(C(F)(F)F)n1)C2 [Example 2AH, ((4aR,8aS)-1-(4-fluorophenyl)-6-((6-(trifluoromethyl)pyridin-2-yl)sulfonyl)-4,4a,5,6,7,8,8a,9-octahydro-1H-pyrazolo[3,4-g]isoquinolin-4a-yl)(thiazol-4-yl)methanone] | 0.5 to 1 nM | < 20 nM |
| O=C(c1ccccn1)[C@]12Cc3cnn(-c4ccc(F)cc4)c3C[C@@H]1CCN(S(=O)(=O)c1ccc(C(F)(F)F)cc1)C2 [Example 1A, ((4aR,8aS)-1-(4-fluorophenyl)-6-((4-(trifluoromethyl)phenyl)sulfonyl)-4,4a,5,6,7,8,8a,9-octahydro-1H-pyrazolo[3,4-g]isoquinolin-4a-yl)(pyridin-2-yl)methanone] | 0.5 to 1 nM | 20 to 100 nM |
| O=C(c1ccccn1)[C@]12Cc3cnn(-c4ccc(F)cc4)c3C[C@@H]1CCN(S(=O)(=O)c1cccc(C(F)(F)F)c1)C2 [Example 2G, ((4aR,8aS)-1-(4-fluorophenyl)-6-((3-(trifluoromethyl)phenyl)sulfonyl)-4,4a,5,6,7,8,8a,9-octahydro-1H-pyrazolo[3,4-g]isoquinolin-4a-yl)(pyridin-2-yl)methanone] | > 1 nM | 20 to 100 nM |
| CCCn1nncc1S(=O)(=O)N1CC[C@H]2Cc3c(cnn3-c3ccc(F)cc3)C[C@]2(C(=O)c2nccs2)C1 [Example 2W, ((4aR,8aS)-1-(4-fluorophenyl)-6-((1-propyl-1H-1,2,3-triazol-5-yl)sulfonyl)-4,4a,5,6,7,8,8a,9-octahydro-1H-pyrazolo[3,4-g]isoquinolin-4a-yl)(thiazol-2-yl)methanone] | > 1 nM | > 100 nM |
| O=C(c1cc(C(F)(F)F)ccn1)[C@]12Cc3cnn(-c4ccc(F)cc4)c3C[C@@H]1CCN(S(=O)(=O)c1cn[nH]n1)C2 [Example 2AE, ((4aR,8aS)-6-((2H-1,2,3-triazol-4-yl)sulfonyl)-1-(4-fluorophenyl)-4,4a,5,6,7,8,8a,9-octahydro-1H-pyrazolo[3,4-g]isoquinolin-4a-yl)(4-(trifluoromethyl)pyridin-2-yl)methanone] | > 1 nM | > 100 nM |
| O=C(c1ccccn1)[C@]12Cc3cnn(-c4ccc(F)cc4)c3C[C@@H]1CCN(S(=O)(=O)c1ccc(C(F)(F)F)c(F)c1)C2 [Example 2U, ((4aR,8aS)-6-((3-fluoro-4-(trifluoromethyl)phenyl)sulfonyl)-1-(4-fluorophenyl)-4,4a,5,6,7,8,8a,9-octahydro-1H-pyrazolo[3,4-g]isoquinolin-4a-yl)(pyridin-2-yl)methanone] | > 1 nM | 20 to 100 nM |
| Cn1ncc(S(=O)(=O)N2CC[C@H]3Cc4c(cnn4-c4ccc(F)cc4)C[C@]3(C(=O)c3cscn3)C2)n1 [Example 2AI, ((4aR,8aS)-1-(4-fluorophenyl)-6-((2-methyl-2H-1,2,3-triazol-4-yl)sulfonyl)-4,4a,5,6,7,8,8a,9-octahydro-1H-pyrazolo[3,4-g]isoquinolin-4a-yl)(thiazol-4-yl)methanone] | > 1 nM | 20 to 100 nM |
| CCn1cc(S(=O)(=O)N2CC[C@H]3Cc4c(cnn4-c4ccc(F)cc4)C[C@]3(C(=O)c3cc(C(F)(F)F)ccn3)C2)cn1 [Example 2K, ((4aR,8aS)-6-((1-ethyl-1H-pyrazol-4-yl)sulfonyl)-1-(4-fluorophenyl)-4,4a,5,6,7,8,8a,9-octahydro-1H-pyrazolo[3,4-g]isoquinolin-4a-yl)(4-(trifluoromethyl)pyridin-2-yl)methanone] | 0.5 to 1 nM | 20 to 100 nM |

Next, values leading:

| Ki (human recombinant GR) | Ki (glucocorticoid receptor) | Compound |
| --- | --- | --- |
| < 0.5 nM | 20 to 100 nM | CC(C)n1cc(S(=O)(=O)N2CC[C@H]3Cc4c(cnn4-c4ccc(F)cc4)C[C@]3(C(=O)c3ccccn3)C2)cn1 [Example 2AA, ((4aR,8aS)-1-(4-fluorophenyl)-6-((1-isopropyl-1H-pyrazol-4-yl)sulfonyl)-4,4a,5,6,7,8,8a,9-octahydro-1H-pyrazolo[3,4-g]isoquinolin-4a-yl)(pyridin-2-yl)methanone] |
| < 0.5 nM | < 20 nM | CC(C)n1ncc(S(=O)(=O)N2CC[C@H]3Cc4c(cnn4-c4ccc(F)cc4)C[C@]3(C(=O)c3ccccn3)C2)n1 [Example 2N, ((4aR,8aS)-1-(4-fluorophenyl)-6-((2-isopropyl-2H-1,2,3-triazol-4-yl)sulfonyl)-4,4a,5,6,7,8,8a,9-octahydro-1H-pyrazolo[3,4-g]isoquinolin-4a-yl)(pyridin-2-yl)methanone] |
| < 0.5 nM | < 20 nM | CCCn1cc(S(=O)(=O)N2CC[C@H]3Cc4c(cnn4-c4ccc(F)cc4)C[C@]3(C(=O)c3ccccn3)C2)cn1 [Example 2B, ((4aR,8aS)-1-(4-fluorophenyl)-6-((1-propyl-1H-pyrazol-4-yl)sulfonyl)-4,4a,5,6,7,8,8a,9-octahydro-1H-pyrazolo[3,4-g]isoquinolin-4a-yl)(pyridin-2-yl)methanone] |
| > 1 nM | 20 to 100 nM | CC(C)n1cc(S(=O)(=O)N2CC[C@H]3Cc4c(cnn4-c4ccc(F)cc4)C[C@]3(C(=O)c3ccccn3)C2)nn1 [Example 2AF, ((4aR,8aS)-1-(4-fluorophenyl)-6-((1-isopropyl-1H-1,2,3-triazol-4-yl)sulfonyl)-4,4a,5,6,7,8,8a,9-octahydro-1H-pyrazolo[3,4-g]isoquinolin-4a-yl)(pyridin-2-yl)methanone] |
| < 0.5 nM | < 20 nM | CCCn1ncc(S(=O)(=O)N2CC[C@H]3Cc4c(cnn4-c4ccc(F)cc4)C[C@]3(C(=O)c3ccccn3)C2)n1 [Example 2A, ((4aR,8aS)-1-(4-fluorophenyl)-6-((2-propyl-2H-1,2,3-triazol-4-yl)sulfonyl)-4,4a,5,6,7,8,8a,9-octahydro-1H-pyrazolo[3,4-g]isoquinolin-4a-yl)(pyridin-2-yl)methanone] |
